The values below come from a melting point compilation (Tetko et al.; mined from patent text by program, amines drawn as free bases though some values may be those of a salt).

Molecules are shown by their SMILES.

The melting point is the temperature, or range, at which the solid turns liquid. Consider `CC(C)Cn1cnc2c(N)nc3cnccc3c21`, for which the melting point lay within 306 to 307 °C.

For `O=C1C=CC(Br)N(CCl)N1` (configuration not stated), the melting point was determined as 90 °C. As for `CCCCc1nc2cccc(C(=O)O)c2n1Cc1ccn2c(C(=O)O)c(-c3ccccc3)nc2c1`, the figure is 202 to 204 °C; as for `C[C@H]1Cn2c(=S)[nH]c3cccc(c32)CN1CC1CC1`, 197 °C. Then `CCOC(=O)CO/N=C(\C(=O)Sc1nc2ccccc2s1)c1cc[nH]n1`, with 112 to 114 °C; and `Cc1nc(N2CCNCC2)c2nc(-c3ccccc3)cc-2[nH]1`, with 236 °C; and `Oc1cccc2c1c1cccc(Cl)c1n2Cc1ccccc1`, with 163 to 166 °C. On to `CCc1nn(CCC(N)=O)c(CC)c1Cc1cc(Cl)cc(Cl)c1`, for which the melting point fell in the range of 140 to 142 °C. As for `N#CSc1nc(Cl)ncc1I`, the figure is 185 to 186 °C; as for `O=C1c2cccc(Cl)c2C(=O)N1CCN1CCC(c2noc3cc(F)ccc23)CC1`, 170 to 171 °C. Then `COc1cc2cc3c(=O)c(C#N)c[nH]c3nc2cc1OC`, with > 300 °C. As for `O=C(c1ccc(Cl)cc1)C1(n2cnc(Cl)n2)CC1`, the figure is 85 °C; as for `NC1=NS(=O)N=C1NCCCN(Cc1ccccc1F)c1ccccn1` (configuration not stated), 180 to 182 °C; as for `CCOC(=O)c1ccc(-c2cnc3c(c2)N(Cc2ccccc2)C(=O)CN3)cc1`, 178 °C. The compound `COc1ccc(-c2c(C)c3cccc4c3n2CC(CCN2CCN(c3cc(C)ccn3)CC2)O4)cc1` (configuration not stated) had a melting point of 165 °C. `CCC(CC)(CC)NC(=S)Nc1cc(Cl)cc(Cl)c1` yielded a melting point of 152 to 154 °C.

Turning to `CC(=O)Nc1cc2c(cc1Br)CCC2`, the melting point came to 138 °C. Then `O=C1N=Nc2ccccc21`, with 232 to 233 °C; and `CCCOc1cc(OCCC)c2c(C)c(CCO)c(=O)oc2c1`, with 106 to 108 °C. With `O=C1CCCCN1C1=CC(CF)(CF)Oc2ccc(C(F)(F)F)cc21`, the melting point lay in the range of 166 to 168 °C. Then `OC1(c2ccccc2)CCN(CCC2COc3ccccc3O2)CC1` (configuration not stated), with 142 °C; and `Cc1cc(Cc2c(F)cc(N)cc2F)n(C)c1C(=O)c1ccc(Cl)cc1`, with 208 to 210 °C; and `N#Cc1ccc2cccc(N3CCN(CCCCOc4ccc5c(n4)NC(=O)NCC5)CC3)c2c1`, with 168 to 170 °C.

`CC(C)n1nc(-c2c(NCCN(C)C)nc(N)nc2-c2ccccc2)ccc1=O` had a melting point of 164 to 166 °C. As for `CC[C@H](C)[C@H](NS(=O)(=O)c1ccc(C)cc1)C(=O)N[C@H](CO)Cc1c[nH]c2ccccc12`, the figure is 217 to 219 °C; as for `FC(F)(F)c1cccc(-c2cnnn2-c2cc(Cl)ccc2OCc2nnn[nH]2)c1`, 181 to 184 °C. For `COC(=O)CC1Sc2ccc(N)cc2CN(CCc2ccccc2)C1=O` (configuration not stated), the melting point fell in the range of 126 to 129 °C. Then `CC(C)CC(=O)Nc1c(C(=O)c2cccc(Cl)c2)[nH]c2cc(Cl)ccc12`, with 185 to 186 °C; and `NC(=O)c1cc2cc(C(O)(C(F)(F)F)C(F)(F)F)ccc2[nH]1`, with 262 to 263 °C. As for `COCCNc1cncc(C(N)=O)c1`, the figure is 79 to 80 °C; as for `Cn1c2ccccc2c(=O)c2c(-c3ccccc3NC(=O)C(C)(C)C)cccc21`, 160 to 162 °C; as for `CCN(CC)c1ccc(C=O)c(OCCN2CCOCC2)c1`, 107 to 109 °C.

In turn, `Cn1nc(O)c(Cl)c1C(F)(F)F` showed a melting point of 136 to 140 °C. As for `CCCCCCCCCCCCCCOc1ccc(C(=O)O)cc1`, the figure is 95 to 99 °C. Take `COc1cc(OC(C)=O)c2ccccc2c1OC(C)=O`: the melting point was in the range of 135 to 136 °C. As for `CC(C)(C)CC(=O)Nc1ccc2oc3c(c2c1)CCCC3`, the figure is 164 to 165 °C; as for `CCN(CC)c1cccc(NC(=O)COC(C)=O)c1C#N`, 50 to 51 °C.

`NC1=NN(C(=O)NC=NO)C(=O)C1Cc1ccccc1` (configuration not stated) had a melting point of 195 °C. Then `O=CN1CCN(c2nc(N3CCSCC3)c3ncnc(NCc4ccccc4)c3n2)CC1`, with 94 to 96 °C; and `Nc1ncc(CN2CCN(c3ccc(Cl)cc3)CC2)c(N)n1`, with 296 to 298 °C. As for `COc1cc2c(cc1OCc1ccccc1)C=C(C(=O)O)CCC2`, the melting point was in the range of 172 to 173 °C. In turn, `CC(=O)OC1CSC(Oc2ccc(C#N)nc2)C(OC(C)=O)C1OC(C)=O` (configuration not stated) registered a melting point of 147 °C. Then `COC(=O)NC1=NCC(c2ccccc2)N1C` (configuration not stated), with 145 to 147 °C; and `COC(=O)c1cccc2nc(N3CCCCC3)n(Cc3ccc(-c4ccccc4-c4nnn[nH]4)cc3)c12`, with 146 to 150 °C; and `COCN1C(C)=C(C(=O)O)C(c2cccc(Cl)c2Cl)C(C(=O)OCOC(=O)C(C)(C)C)=C1C` (single isomer, unassigned; (+)), with 89 to 90 °C. `COc1ccc(C=C2Oc3ccc(C(=O)O)cc3C2=O)c(OC)c1OC` displayed a melting point of 247 to 249 °C.

Compound `CS(=O)(=O)NC(=O)Cc1ccc2c(c1)Nc1nccnc1S2` showed a melting point of 236 to 238 °C. The compound `CC(C)(C)OC(=O)CCc1ccnc(-c2nc(=O)c3ccccc3s2)c1` yielded a melting point of 136 to 137 °C. Then `CNC(=O)c1cccc(NC(=O)C2(c3ccccc3)CCCC2)c1`, with 147 °C; and `C=C(C)CCOc1c(-c2ccc(S(C)(=O)=O)cc2)cnn(-c2ccc(F)cc2)c1=O`, with 109 to 111 °C; and `Cc1cc(NC(=O)C(C)(O)COc2cc(F)cc(F)c2)ccc1[N+](=O)[O-]` (configuration not stated), with 104 to 106 °C. Regarding `CCOC(=O)c1cc2c(nc1C)C(=Cc1ccco1)CCC2`, the melting point was 119 to 120 °C. As for `C[C@H](Oc1cc(-c2c3ccccc3c(Br)c3sc4ccccc4c23)ccc1Br)C(=O)O`, the figure is 132 to 134 °C.

For the compound `CC(C)CNS(=O)(=O)c1cccc(NC(=O)c2cnn3c(C(F)F)cc(-c4ccc(C(F)(F)F)cc4)nc23)c1`, the melting point is 186 °C. As for `c1ccc(COc2ccc3ccc4cccc5ccc2c3c45)cc1`, the figure is 105 to 106 °C; as for `C#CCN=C(NC#N)SC`, 160 to 164 °C; as for `O=C(Nc1ccc(OCCN2CCOCC2)c2ccccc12)c1cccc(-n2cccc2)c1`, 142 to 143 °C. The compound `CCOP(=O)(Cc1ccc(NC(=O)[C@H]2Cc3cc4c(cc3C(=O)[C@H](C)S2)OCO4)cc1)OCC` came in with a melting point of 181 to 182 °C. Then `CC(Oc1ccc(Oc2ccc(C#N)cc2)cc1)C(=O)Nc1ccccc1` (configuration not stated), with 133 to 134 °C; and `COc1ccc(N2CCN(c3c(C)c(C=O)c4c(c3C)C(c3ccc(C)cc3)C(C)(C)O4)CC2)cc1` (configuration not stated), with 175 to 177 °C; and `CC(C)(C)c1cc(C(=NNc2ccccc2)c2cccnc2Cl)cc(C(C)(C)C)c1O`, with 181 °C. Then `CCCCN(CCCC)CCCOc1ccc(C(=O)c2c(-c3ccccc3)n(C)c3ccc(NS(C)(=O)=O)cc23)cc1`, with 116 °C; and `CC(=O)OCc1ccc(N(c2ccccc2)c2ccc(C=O)cc2)cc1`, with 86 to 89 °C; and `O=C(C=C(S)c1ccccc1)Nc1nc2ccccc2s1`, with 168 to 172 °C. For the compound `O=C(O)Cc1c(C(=O)O)c2cc(Oc3ccc(C(F)(F)F)cc3)ccc2n1-c1ccc(OC(F)(F)F)cc1`, the melting point was 257 to 259 °C. `COc1cccc2oc(C(=O)C34CC5CC(CC(C5)C3)C4)cc12` yielded a melting point of 96 to 98 °C.

As for `Cc1ccc2nc(NC(=O)c3ccc(C(C)(C)CCc4noc(=O)[nH]4)cc3)cn2c1`, the melting point is 267 to 268 °C. Then `CS(=O)c1ccc(-n2cnc3ccc(-c4nnc(CC(F)(F)F)o4)cc32)cc1` (configuration not stated), with 184 to 185 °C. In turn, `CCCCCCCCN1C(=O)C2C3CCC(O3)C2C1=O` (configuration not stated) gave a melting point of 36 to 37 °C.

`COc1cc(C=CC(=O)Nc2c(-c3ccccc3Cl)c3cc(C)c(C)cc3n(C)c2=O)cc(OC)c1OC(C)=O` gave a melting point of 259 to 260 °C.

As for `CN(C)C(=O)C1=C(C(=O)Nc2ccc(Cl)cc2)CCCC1`, the melting point stood at 125 °C. Consider `CCCCN(Cc1ccc(-c2ccccc2-c2nnn[nH]2)cc1)c1ncncc1C(=O)OCC`, for which the melting point lay in the range of 109 to 111 °C. As for `COc1ccc(C)cc1NC(=O)Nc1ccc(N2CCN(C(=O)C3CCCCC3C)CC2)cc1` (configuration not stated), the figure is 208 to 209 °C; as for `N=C(N)NOc1nccc2ccccc12`, 162 to 164 °C. As for `NC(=O)C1C(CSSCC2C(C(N)=O)N(Cc3ccccc3)C(=O)N2Cc2ccccc2)N(Cc2ccccc2)C(=O)N1Cc1ccccc1` (configuration not stated), the figure is 208 to 211 °C. In the case of `Cc1cc(-c2ccccc2)n2nc(N)nc2n1`, the melting point fell in the range of 246 to 250 °C. For the compound `OCc1cccc2nnsc12`, the melting point lay within 79 to 81 °C. Then `Fc1cccc(Cn2ncc3cc(Nc4ncnc5cnc(F)cc45)ccc32)c1`, with 218 to 221 °C. Then `COC(=O)c1ccc(Cl)c(C2(O)C(=O)N(Cc3ccc(Cl)cc3OC)c3ccc(Cl)cc32)c1` (configuration not stated), with 205 °C; and `Cc1nc(N2CCN(CC3CC3)C2=O)sc1C(=O)NCc1ccccc1`, with 142 to 143 °C; and `NCc1ccc(-n2c(-c3cccnc3N)nc3ccc(-c4ccccc4)nc32)cc1`, with 215 to 218 °C. For the compound `Cc1cc(C)cc(S(=O)(=O)c2ccc([N+](=O)[O-])cc2)c1`, the melting point is 179 to 180 °C. Take `CC(C)(C)C(=O)c1c[nH]c2ncc(N3CCc4ccccc4C3=O)nc12`: the melting point fell in the range of 113 to 115 °C. On to `N=C(NC=Cc1ccc([N+](=O)[O-])cc1)c1ccccc1`, for which the melting point fell in the range of 163 to 165 °C. As for `COc1ccc2c(c1)[C@@H](O)[C@H](CN1CCC3(CC1)C(=O)NCN3c1ccccc1)CC2` (relative stereo), the figure is 216 to 218 °C. Then `Cc1cc(C)c2sc(-c3ccccn3)nc(=O)c2c1`, with 245 to 246 °C; and `CCn1c(=O)c2c(nc(/C=C/c3ccc(OC)c(OC(C)=O)c3)n2C)n(CC)c1=O`, with 241 to 242 °C.
